From ChEMBL document CHEMBL1926636, “Isoxazoles incorporated N-substituted decahydroquinolines: a precursor to the next generation antimicrobial drug” (2012)
≈ marks a conversion by molar mass, not a printed value.

Assays:
Bacillus subtilis [1] = experiment: Antibacterial activity against Bacillus subtilis ATCC 6631 by twofold serial dilution technique; assay type: functional
Escherichia coli [2] = experiment: Antibacterial activity against Escherichia coli ATCC 35218 by twofold serial dilution technique; assay type: functional
Escherichia coli [3] = experiment: Antibacterial activity against Escherichia coli ATCC 35218 at 10 ug/mL after 24 hrs by disc diffusion method; assay type: functional; conditions: ATCC 35218, 24 h, read-out: IZ
[4] = tested on: Lysinibacillus sphaericus; experiment: Antibacterial activity against Bacillus sphaericus ATCC 7031 by twofold serial dilution technique; assay type: functional
Pseudomonas aeruginosa [5] = experiment: Antibacterial activity against Pseudomonas aeruginosa ATCC 9027 by twofold serial dilution technique; assay type: functional
Candida albicans [6] = experiment: Antifungal activity against Candida albicans ATCC 90028 at 10 ug/mL after 72 hrs by agar cup plate method; assay type: functional; conditions: ATCC 90028, 72 h, read-out: IZ
Salmonella typhi [7] = experiment: Antibacterial activity against Salmonella typhi ATCC 6539 by twofold serial dilution technique; assay type: functional, Salmonella enterica subsp. enterica serovar Typhi; conditions: Salmonella enterica
Aspergillus fumigatus [8] = experiment: Antifungal activity against Aspergillus fumigatus ATCC 28212 at 10 ug/mL after 72 hrs by agar cup plate method; assay type: functional; conditions: ATCC 28212, 72 h, read-out: IZ
Candida albicans [9] = experiment: Antifungal activity against Candida albicans ATCC 90028 by twofold serial dilution technique; assay type: functional
[10] = tested on: Lysinibacillus sphaericus; experiment: Antibacterial activity against Bacillus sphaericus ATCC 7031 at 10 ug/mL after 24 hrs by disc diffusion method; assay type: functional; conditions: ATCC 7031, 24 h, read-out: IZ
Aspergillus fumigatus [11] = experiment: Antifungal activity against Aspergillus fumigatus ATCC 28212 by twofold serial dilution technique; assay type: functional
Salmonella typhi [12] = experiment: Antibacterial activity against Salmonella typhi ATCC 6539 at 10 ug/mL after 24 hrs by disc diffusion method; assay type: functional, Salmonella enterica subsp. enterica serovar Typhi; conditions: Salmonella enterica, ATCC 6539, 24 h; read-out: IZ
Aspergillus niger [13] = experiment: Antifungal activity against Aspergillus niger ATCC 16404 at 10 ug/mL after 72 hrs by agar cup plate method; assay type: functional; conditions: ATCC 16404, 72 h, read-out: IZ
Bacillus subtilis [14] = experiment: Antibacterial activity against Bacillus subtilis ATCC 6631 at 10 ug/mL after 24 hrs by disc diffusion method; assay type: functional; conditions: ATCC 6631, 24 h, read-out: IZ
Pseudomonas aeruginosa [15] = experiment: Antibacterial activity against Pseudomonas aeruginosa ATCC 9027 at 10 ug/mL after 24 hrs by disc diffusion method; assay type: functional; conditions: ATCC 9027, 24 h, read-out: IZ
Candida albicans [16] = experiment: Antifungal activity against Candida albicans PYCC 3436 at 10 ug/mL after 72 hrs by agar cup plate method; assay type: functional; conditions: PYCC 3436, 72 h, read-out: IZ
Candida albicans [17] = experiment: Antifungal activity against Candida albicans PYCC 3436 by twofold serial dilution technique; assay type: functional
Aspergillus niger [18] = experiment: Antifungal activity against Aspergillus niger ATCC 16404 by twofold serial dilution technique; assay type: functional
Staphylococcus aureus [19] = experiment: Antibacterial activity against Staphylococcus aureus ATCC 6538 by twofold serial dilution technique; assay type: functional
Staphylococcus aureus [20] = experiment: Antibacterial activity against Staphylococcus aureus ATCC 6538 at 10 ug/mL after 24 hrs by disc diffusion method; assay type: functional; conditions: ATCC 6538, 24 h, read-out: IZ

| Compound | MIC99 (Bacillus subtilis [1]) | MIC99 (Escherichia coli [2]) | zone of inhibition at 10 µg/mL (Escherichia coli [3]) | MIC99 [4] | MIC99 (Pseudomonas aeruginosa [5]) | zone of inhibition at 10 µg/mL (Candida albicans [6]) | MIC99 (Salmonella typhi [7]) | zone of inhibition at 10 µg/mL (Aspergillus fumigatus [8]) | MIC99 (Candida albicans [9]) | zone of inhibition at 10 µg/mL [10] | MIC99 (Aspergillus fumigatus [11]) | zone of inhibition at 10 µg/mL (Salmonella typhi [12]) | zone of inhibition at 10 µg/mL (Aspergillus niger [13]) | zone of inhibition at 10 µg/mL (Bacillus subtilis [14]) | zone of inhibition at 10 µg/mL (Pseudomonas aeruginosa [15]) | zone of inhibition at 10 µg/mL (Candida albicans [16]) | MIC99 (Candida albicans [17]) | MIC99 (Aspergillus niger [18]) | MIC99 (Staphylococcus aureus [19]) | zone of inhibition at 10 µg/mL (Staphylococcus aureus [20]) |
| --- | --- | --- | --- | --- | --- | --- | --- | --- | --- | --- | --- | --- | --- | --- | --- | --- | --- | --- | --- | --- |
| Clc1ccccc1C1ONC2=C1C(c1ccccc1)N(Cc1ccccc1)C1CCCCC21 (stereo not given) | 50 µg/mL (≈ 109 µM) | 25 µg/mL (≈ 54.7 µM) | 7 mm | 50 µg/mL (≈ 109 µM) | 25 µg/mL (≈ 54.7 µM) | 22 mm | > 100 µg/mL | 5 mm | 25 µg/mL (≈ 54.7 µM) | 13 mm | 25 µg/mL (≈ 54.7 µM) | 9 mm | 14 mm | 5 mm | 6 mm | 16 mm | 25 µg/mL (≈ 54.7 µM) | 100 µg/mL (≈ 219 µM) | 50 µg/mL (≈ 109 µM) | 12 mm |
| COc1ccc(C2ONC3=C2C(c2ccccc2)N(Cc2ccccc2)C2CCCCC32)cc1OC (stereo not given) | 50 µg/mL (≈ 104 µM) | 50 µg/mL (≈ 104 µM) | 6 mm | 100 µg/mL (≈ 207 µM) | 25 µg/mL (≈ 51.8 µM) | 15 mm | 100 µg/mL (≈ 207 µM) | 6 mm | 50 µg/mL (≈ 104 µM) | 9 mm | 12.5 µg/mL (≈ 25.9 µM) | 12 mm | 14 mm | 7 mm | 4 mm | 9 mm | 50 µg/mL (≈ 104 µM) | 100 µg/mL (≈ 207 µM) | 100 µg/mL (≈ 207 µM) | 9 mm |
| c1ccc(CN2C(c3ccccc3)C3=C(NOC3c3cccnc3)C3CCCCC32)cc1 (stereo not given) | 100 µg/mL (≈ 236 µM) | 100 µg/mL (≈ 236 µM) | 4 mm | 50 µg/mL (≈ 118 µM) | 50 µg/mL (≈ 118 µM) | 17 mm | 100 µg/mL (≈ 236 µM) | 6 mm | 50 µg/mL (≈ 118 µM) | 13 mm | 12.5 µg/mL (≈ 29.5 µM) | 11 mm | 8 mm | 3 mm | 4 mm | 17 mm | 12.5 µg/mL (≈ 29.5 µM) | > 100 µg/mL | 50 µg/mL (≈ 118 µM) | 11 mm |
| c1ccc(CN2C(c3ccccc3)C3=C(NOC3c3c[nH]c4ccccc34)C3CCCCC32)cc1 (stereo not given) | > 100 µg/mL | 25 µg/mL (≈ 54.2 µM) | 7 mm | 100 µg/mL (≈ 217 µM) | 25 µg/mL (≈ 54.2 µM) | 13 mm | > 100 µg/mL | 5 mm | 100 µg/mL (≈ 217 µM) | 6 mm | 25 µg/mL (≈ 54.2 µM) | 7 mm | 9 mm | 3 mm | 5 mm | 11 mm | 50 µg/mL (≈ 108 µM) | > 100 µg/mL | 50 µg/mL (≈ 108 µM) | 11 mm |
| O=C(O)c1cn(C2CC2)c2cc(N3CCNCC3)c(F)cc2c1=O [CIPROFLOXACIN] | 25 µg/mL (≈ 75.4 µM) | 18 µg/mL (≈ 54.3 µM) | 9 mm | 20 µg/mL (≈ 60.4 µM) | 12.5 µg/mL (≈ 37.7 µM) | – | 50 µg/mL (≈ 151 µM) | – | – | 24 mm | – | 39 mm | – | 9 mm | 8 mm | – | – | – | 25 µg/mL (≈ 75.4 µM) | 17 mm |
| c1ccc(CN2C(c3ccccc3)C3=C(NOC3c3ccccc3)C3CCCCC32)cc1 (stereo not given) | 100 µg/mL (≈ 237 µM) | 100 µg/mL (≈ 237 µM) | 4 mm | 100 µg/mL (≈ 237 µM) | 100 µg/mL (≈ 237 µM) | 7 mm | > 100 µg/mL | 2 mm | > 100 µg/mL | 11 mm | 100 µg/mL (≈ 237 µM) | 3 mm | 4 mm | 4 mm | 3 mm | 10 mm | 50 µg/mL (≈ 118 µM) | > 100 µg/mL | 100 µg/mL (≈ 237 µM) | 10 mm |
| c1ccc(CN2C(c3ccccc3)C3=C(NOC3c3ccco3)C3CCCCC32)cc1 (stereo not given) | 50 µg/mL (≈ 121 µM) | 100 µg/mL (≈ 242 µM) | 3 mm | 50 µg/mL (≈ 121 µM) | 50 µg/mL (≈ 121 µM) | 12 mm | > 100 µg/mL | 4 mm | 100 µg/mL (≈ 242 µM) | 12 mm | 50 µg/mL (≈ 121 µM) | 2 mm | 4 mm | 5 mm | 4 mm | 4 mm | 100 µg/mL (≈ 242 µM) | > 100 µg/mL | 100 µg/mL (≈ 242 µM) | 5 mm |
| c1ccc(CN2C(c3ccccc3)C3=C(NOC3c3ccc4c(c3)OCO4)C3CCCCC32)cc1 (stereo not given) | 100 µg/mL (≈ 214 µM) | 50 µg/mL (≈ 107 µM) | 4 mm | 50 µg/mL (≈ 107 µM) | 25 µg/mL (≈ 53.6 µM) | 16 mm | > 100 µg/mL | 4 mm | 50 µg/mL (≈ 107 µM) | 11 mm | 50 µg/mL (≈ 107 µM) | 7 mm | 11 mm | 5 mm | 5 mm | 6 mm | 100 µg/mL (≈ 214 µM) | 100 µg/mL (≈ 214 µM) | 100 µg/mL (≈ 214 µM) | 8 mm |
| Clc1ccc(C2ONC3=C2C(c2ccccc2)N(Cc2ccccc2)C2CCCCC32)cc1 (stereo not given) | 50 µg/mL (≈ 109 µM) | 50 µg/mL (≈ 109 µM) | 4 mm | 25 µg/mL (≈ 54.7 µM) | 25 µg/mL (≈ 54.7 µM) | 21 mm | > 100 µg/mL | 4 mm | 25 µg/mL (≈ 54.7 µM) | 16 mm | 50 µg/mL (≈ 109 µM) | 9 mm | 16 mm | 6 mm | 5 mm | 18 mm | 12.5 µg/mL (≈ 27.4 µM) | 100 µg/mL (≈ 219 µM) | 50 µg/mL (≈ 109 µM) | 14 mm |
| O=[N+]([O-])c1cccc(C2ONC3=C2C(c2ccccc2)N(Cc2ccccc2)C2CCCCC32)c1 (stereo not given) | 50 µg/mL (≈ 107 µM) | 50 µg/mL (≈ 107 µM) | 5 mm | 100 µg/mL (≈ 214 µM) | 25 µg/mL (≈ 53.5 µM) | 24 mm | > 100 µg/mL | 5 mm | 25 µg/mL (≈ 53.5 µM) | 9 mm | 12.5 µg/mL (≈ 26.7 µM) | 8 mm | 21 mm | 6 mm | 5 mm | 16 mm | 25 µg/mL (≈ 53.5 µM) | 100 µg/mL (≈ 214 µM) | 100 µg/mL (≈ 214 µM) | 8 mm |
| CC(=O)N1CCN(c2ccc(OCC3COC(Cn4ccnc4)(c4ccc(Cl)cc4Cl)O3)cc2)CC1 (stereo not given) [KETOCONAZOLE] | – | – | – | – | – | 22 mm | – | 10 mm | 25 µg/mL (≈ 47 µM) | – | 7 µg/mL (≈ 13.2 µM) | – | 25 mm | – | – | 22 mm | 7.8 µg/mL (≈ 14.7 µM) | 50 µg/mL (≈ 94.1 µM) | – | – |
| O=[N+]([O-])c1ccc(C2ONC3=C2C(c2ccccc2)N(Cc2ccccc2)C2CCCCC32)cc1 (stereo not given) | 100 µg/mL (≈ 214 µM) | 50 µg/mL (≈ 107 µM) | 5 mm | 50 µg/mL (≈ 107 µM) | 12.5 µg/mL (≈ 26.7 µM) | 19 mm | 100 µg/mL (≈ 214 µM) | 6 mm | 50 µg/mL (≈ 107 µM) | 14 mm | 12.5 µg/mL (≈ 26.7 µM) | 10 mm | 13 mm | 4 mm | 6 mm | 12 mm | 50 µg/mL (≈ 107 µM) | 100 µg/mL (≈ 214 µM) | 50 µg/mL (≈ 107 µM) | 11 mm |
| COc1ccc(C2ONC3=C2C(c2ccccc2)N(Cc2ccccc2)C2CCCCC32)cc1 (stereo not given) | 100 µg/mL (≈ 221 µM) | 25 µg/mL (≈ 55.2 µM) | 6 mm | 100 µg/mL (≈ 221 µM) | 100 µg/mL (≈ 221 µM) | 14 mm | 100 µg/mL (≈ 221 µM) | 3 mm | 50 µg/mL (≈ 110 µM) | 7 mm | 100 µg/mL (≈ 221 µM) | 11 mm | 7 mm | 5 mm | 4 mm | 12 mm | 50 µg/mL (≈ 110 µM) | > 100 µg/mL | 50 µg/mL (≈ 110 µM) | 14 mm |
